Measured values as given in patent US20220193081A1 (Ellamed IP & Services PTE. LTD., priority 2019, published 2022).

Test: Ionic strength study, visual inspection: sildenafil citrate and sucralose in absolute alcohol mixed with equal volume of NaCl solution or purified water (Example 3)
Type: physicochemical
Experimental: The mixtures were then either placed on storage or NaOH 1N solution was introduced to reach a predetermined pH values. Before being placed on storage, and at time points 7 and 42 days, the concentration of sildenafil in the mixtures were assayed using HPLC. The samples were then stored at either −20° C., 2-8° C. or 25° C. for periods of up to 42 days. Periodically, the samples were visually inspected for evidence of crystallization.

Measured: visual inspection for crystallization

CCCc1nn(C)c2c(=O)nc(-c3cc(S(=O)(=O)N4CCN(C)CC4)ccc3OCC)[nH]c12.O=C(O)CC(O)(CC(=O)O)C(=O)O [sildenafil citrate, 1-[[3-(4,7-Dihydro-1-methyl-7-oxo-3-propyl-1H-pyrazolo[4,3-d]pyrimidin-5-yl)-4-ethoxyphenyl]sulfonyl]-4-methylpiperazine citrate salt]
Prec.: 15 mg/ml, pH 4.39, NaCl diluent 100 mM, initially added to 40 ml of diluent, −20° C. | 15 mg/ml, pH 4.45, NaCl diluent 50 mM, −20° C. | 15 mg/ml, pH 4.52, NaCl diluent 25 mM, 2-8° C. | 15 mg/ml, pH 4.52, NaCl diluent 25 mM, −20° C. | 15 mg/ml, pH 4.75, purified water diluent, 2-8° C. | 15 mg/ml, pH 4.75, purified water diluent, −20° C. | 18 mg/ml, pH 5.5 (NaOH), NaCl diluent 100 mM, −20° C. | 21 mg/ml, pH 5.5 (NaOH), NaCl diluent 100 mM, −20° C.
